Data published in patent US20210300936A1, “PYRAZOLOTRIAZOLOPYRIMIDINE DERIVATIVES AS A2A RECEPTOR ANTAGONIST” (BEIGENE, LTD., priority 2018, published 2021).
Like-named read-outs stand apart in the source and are kept apart here.

Columns and labels:
[1] = molecular target: human A2A receptor (A2AR) (Homo sapiens, UniProt P29274); experiment: Luciferase reporter assay (HEK293-A2AR-luc2p/CRE/Hygro cells, 3 nM CGS21680); format: cell-based; conditions: 3 nM CGS21680, 5 h incubation
Method in brief: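 HEK293 cells stably expressing A2AR with a CRE-luc2P reporter were seeded in 1% FBS with 1 U/mL adenosine deaminase. After 18 h, cells got 3 nM CGS21680 plus antagonist at 0.1–10000 nM for 5 h, followed by a luciferase readout. IC50 is relative to the 3 nM CGS21680 signal, set as 100%.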

[2] = molecular target: T1, human adenosine receptor A1 (A1R) (Homo sapiens, UniProt P30542); experiment: Adenosine receptor binding assay, radioligand competitive binding, [3H]DPCPX; conditions: membrane homogenates from CHO cells transfected with A1R, 1 nM [3H]DPCPX
T1 construct: host or cells: CHO cells (membrane homogenates)
T1 sequence (P30542 1-326): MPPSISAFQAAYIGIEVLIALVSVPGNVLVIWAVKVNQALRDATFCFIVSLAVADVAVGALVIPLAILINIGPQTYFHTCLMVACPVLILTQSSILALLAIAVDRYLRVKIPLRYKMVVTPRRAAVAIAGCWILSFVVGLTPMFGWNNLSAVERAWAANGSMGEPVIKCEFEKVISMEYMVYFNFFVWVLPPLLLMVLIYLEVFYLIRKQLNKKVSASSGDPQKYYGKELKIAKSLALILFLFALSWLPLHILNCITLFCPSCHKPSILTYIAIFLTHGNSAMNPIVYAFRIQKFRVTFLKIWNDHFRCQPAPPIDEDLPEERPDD
Description: (§1) Binding affinity of test compounds to four human adenosine receptors, A1, A2A, A2B and A3 was determined in radioligand competitive binding assay (conducted by Cerep, France) using following protocols. For A1 receptor (A1R), membrane homogenates from CHO cells transfected with A1R were incubated for 60 min at 22° C. with 1 nM [3H]DPCPX in the absence or presence of the test compound in a buffer containing 50 mM Tris-HCl (pH 7.4), 5 mM MgCl2, 1 mM EDTA/Tris and 2 UI/mL ADA. For A2AR, membrane homogenates from HEK293 cells transfected with A2AR were incubated for 120 min at 22° C. with 6 nM [3H]CGS21680 in the absence or presence of the test compound in a buffer containing 50 mM Tris-HCl (pH 7.4), 10 mM MgCl2, and 2 UI/mL ADA. For A2B receptor (A2BR), membrane homogenates from HEK293 cells transfected with A2BR were incubated for 60 min at 22° C. with 5 nM [3H]CPX in the absence or presence of the test compound in a buffer containing 10 mM Hepes/Tris (pH 7), 1 mM MgCl2, and 1 mM EDTA. For A3 receptor (A3R), membrane homogenates from HEK293 cells transfected with A3R were incubated for 120 min at 22° C. with 0.15 nM [125I]AB-MECA in the absence or presence of the test compound in a buffer containing 50 mM Tris-HCl (pH 7.4), 5 mM MgCl2, 1 mM EDTA and 2 UI/mL ADA. Nonspecific binding was determined in the presence of unlabeled 1 μM DPCPX, 10 μM NECA, 100 μM NECA, and 1 μM IB-MECA in A1R, A2AR, A2BR, A3R binding assays, respectively. Following incubation, the samples are rapidly filtered and washed with ice-cold 50 mM Tris-HCl. Then filters are dried and counted for radioactivity in a scintillation counter (Topcount, Packard) using a scintillation cocktail (Microscint 0, Packard). Duplicate experiments were performed for each assay. The results are expressed as a percent inhibition of control radioligand specific binding.

[3] = molecular target: T2, human adenosine receptor A2A (A2AR) (Homo sapiens, UniProt P29274); experiment: Adenosine receptor binding assay, radioligand competitive binding, [3H]CGS21680; conditions: membrane homogenates from HEK293 cells transfected with A2AR, 6 nM [3H]CGS21680
T2 construct: host or cells: HEK293 cells (membrane homogenates)
T2 sequence (P29274 whole entry): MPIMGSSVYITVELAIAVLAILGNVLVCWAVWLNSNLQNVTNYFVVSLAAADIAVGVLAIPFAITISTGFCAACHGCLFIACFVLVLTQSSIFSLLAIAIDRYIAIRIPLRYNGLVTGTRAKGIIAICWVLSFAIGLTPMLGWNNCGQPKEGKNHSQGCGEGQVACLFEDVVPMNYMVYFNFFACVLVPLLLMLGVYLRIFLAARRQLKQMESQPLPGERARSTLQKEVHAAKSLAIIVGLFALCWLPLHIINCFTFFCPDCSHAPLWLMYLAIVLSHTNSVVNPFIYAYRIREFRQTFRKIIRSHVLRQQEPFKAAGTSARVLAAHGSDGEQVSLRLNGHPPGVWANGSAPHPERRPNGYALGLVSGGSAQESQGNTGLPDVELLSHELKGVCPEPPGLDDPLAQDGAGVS
Description: as §1

Mouse BBB assay = format: in vivo; conditions: oral 10 mg/kg
Description: Mice were acclimated for 1 week prior to use at 18-30 g body weight. Fasted mice were dosed orally at 10 mg/kg dose. At 1, 2 and 4 hours postdose, plasma samples from cardiac blood collected in tubes containing K2EDTA as the anticoagulant, and excised cerebral hemispheres were immediately frozen and stored at −80° C. until bioanalysis. Total concentrations of the compound were determined by LC-MS/MS. Brain homogenate concentrations were converted to brain concentrations for the calculations of brain-to-plasma ratios.

human A2A receptor (A2AR), sequence (P29274 whole entry): as above

| IC50 [1] [nM] | Ki [2] [nM] | Ki [3] [nM] | concentration at 1 h (Mouse BBB assay; brain, read-out: Brain) [ng/g] | concentration at 1 h (Mouse BBB assay; plasma, read-out: Plasma) [ng/mL] | Structure (SMILES) |
| --- | --- | --- | --- | --- | --- |
| 66.8 | 0.81 | 2.8 |  |  | COCCOc1ccc(N2CCN(C(=O)Cn3cc4c(nc(N)n5nc(-c6ccco6)nc45)n3)CC2)cc1 [Compound D2, 2-(5-amino-2-(furan-2-yl)-8H-pyrazolo[4,3-e][1,2,4]triazolo[1,5-c]pyrimidin-8-yl)-1-(4-(4-(2-methoxyethoxy)phenyl)piperazin-1-yl)ethan-1-one] |
| 3.3 | 153 | 1.5 |  |  | COCCOc1ccc(N2CCN(C(=O)[C@@](C)(c3ccccc3)n3ncc4c3nc(N)n3nc(-c5ccco5)nc43)CC2)cc1 [Compound A63b, (R)-2-(5-amino-2-(furan-2-yl)-7H-pyrazolo[4,3-e][1,2,4]triazolo[1,5-c]pyrimidin-7-yl)-1-(4-(4-(2-methoxyethoxy)phenyl)piperazin-1-yl)-2-phenylpropan-1-one] |
| 96.4 | 770 | 15 |  |  | COCCOc1ccc(N2CCN(C(=O)C(CC(C)C)n3ncc4c3nc(N)n3nc(-c5ccco5)nc43)CC2)cc1 (single isomer, unassigned) [Compound A16b] |
| 0.8 | 42 | 0.92 | 54 | 2440 | COCCOc1ccc(N2CCN(C(=O)C(c3ccccc3)n3ncc4c3nc(N)n3nc(-c5ccco5)nc43)CC2)cc1 (single isomer, unassigned) [Compound A13b] |
| 1 | 120 | 1.4 |  |  | CCCC(C(=O)N1CCN(c2ccc(OCCOC)cc2F)CC1)n1ncc2c1nc(N)n1nc(-c3ccco3)nc21 (single isomer, unassigned) [Compound A24a] |
| 2.7 | 120 | 2.3 | 20 | 471 | CCCCC(C(=O)N1CCN(c2ccc(OCCOC)cc2)CC1)n1ncc2c1nc(N)n1nc(-c3ccco3)nc21 (single isomer, unassigned) [Compound A10a, 2-(5-amino-2-(furan-2-yl)-7H-pyrazolo[4,3-e][1,2,4]triazolo[1,5-c]pyrimidin-7-yl)-1-(4-(4-(2-methoxyethoxy)phenyl)piperazin-1-yl)hexan-1-one] |
| 0.3 | 57 | 1.5 |  |  | COCCOc1ccc(N2CCN(C(=O)C(CC(C)C)n3ncc4c3nc(N)n3nc(-c5ccco5)nc43)CC2)cc1 (single isomer, unassigned) [Compound A16a] |
| 0.4 | 54 | 1.2 |  |  | COCCOc1ccc(N2CCN(C(=O)C(c3ccccc3F)n3ncc4c3nc(N)n3nc(-c5ccco5)nc43)CC2)cc1 (single isomer, unassigned) [Compound A43b] |
| 3.6 | 79 | 2 |  |  | CCCC(C(=O)N1CCN(c2ccc(OCCN(C)C)cc2)CC1)n1ncc2c1nc(N)n1nc(-c3ccco3)nc21 (single isomer, unassigned) [Compound A39b] |
| 57.1 | < 0.5 | 6.2 |  |  | COCCOc1ccc(N2CCN(C(=O)C(C)n3cc4c(nc(N)n5nc(-c6ccco6)nc45)n3)CC2)cc1 (single isomer, unassigned) [Compound C1a] |
| 5 | 81 | 1.4 | 4.2 | 173 | CCCC(C(=O)N1CCN(c2ccc(OCCOCCOC)cc2)CC1)n1ncc2c1nc(N)n1nc(-c3ccco3)nc21 (single isomer, unassigned) [Compound A6a, 2-(5-amino-2-(furan-2-yl)-7H-pyrazolo[4,3-e][1,2,4]triazolo[1,5-c]pyrimidin-7-yl)-1-(4-(4-(2-(2-methoxyethoxy)ethoxy)phenyl)piperazin-1-yl)pentan-1-one] |
| 143 | 260 | 5.6 |  |  | CCCCC(C(=O)N1CCN(c2ccc(OCCOC)cc2)CC1)n1ncc2c1nc(N)n1nc(-c3ccco3)nc21 (single isomer, unassigned) [Compound A10b, 2-(5-amino-2-(furan-2-yl)-7H-pyrazolo[4,3-e][1,2,4]triazolo[1,5-c]pyrimidin-7-yl)-1-(4-(4-(2-methoxyethoxy)phenyl)piperazin-1-yl)hexan-1-one] |
| 12.7 | 10 | 2.5 |  |  | COCCOc1ccc(N2CCN(C(=O)C(C)n3cc4c(nc(N)n5nc(-c6ccco6)nc45)n3)CC2)cc1 (single isomer, unassigned) [Compound C1b] |
| 0.6 | 18 | 1.7 |  |  | CC(C)CC(C(=O)N1CCN(c2ccc(F)cc2F)CC1)n1ncc2c1nc(N)n1nc(-c3ccco3)nc21 (single isomer, unassigned) [Compound A22b] |
| 27 | 52 | 1.8 |  |  | COCCOc1ccc(N2CCN(C(=O)Cn3ncc4c3nc(N)n3nc(-c5ccco5)nc43)CC2)cc1 [Compound D1, 2-(5-amino-2-(furan-2-yl)-7H-pyrazolo[4,3-e][1,2,4]triazolo[1,5-c]pyrimidin-7-yl)-1-(4-(4-(2-methoxyethoxy)phenyl)piperazin-1-yl)ethan-1-one] |
| 2.2 | 160 | 1.7 | 5.1 | 116 | CCCC(C(=O)N1CCN(c2ccc(OCCOC)cc2)CC1)n1ncc2c1nc(N)n1nc(-c3ccco3)nc21 (single isomer, unassigned) [Compound A5a, 2-(5-amino-2-(furan-2-yl)-7H-pyrazolo[4,3-e][1,2,4]triazolo[1,5-c]pyrimidin-7-yl)-1-(4-(4-(2-methoxyethoxy)phenyl)piperazin-1-yl)pentan-1-one] |
| 26.9 | 190 | 6.2 |  |  | COCCOc1ccc(N2CCN(C(=O)C(c3ccccc3)n3ncc4c3nc(N)n3nc(-c5ccco5)nc43)CC2)cc1 (single isomer, unassigned) [Compound A13a] |
| 50 | 310 | 6 |  |  | CCCC(C(=O)N1CCN(c2ccc(OCCOC)cc2)CC1)n1ncc2c1nc(N)n1nc(-c3ccco3)nc21 (single isomer, unassigned) [Compound A5b, 2-(5-amino-2-(furan-2-yl)-7H-pyrazolo[4,3-e][1,2,4]triazolo[1,5-c]pyrimidin-7-yl)-1-(4-(4-(2-methoxyethoxy)phenyl)piperazin-1-yl)pentan-1-one] |
| 0.5 | 150 | 0.89 |  |  | Nc1nc2c(cnn2C(C(=O)N2CCc3ccccc3C2)c2ccccc2)c2nc(-c3ccco3)nn12 (single isomer, unassigned) [Compound B3b] |
